Consider eleven molecules from paper PMC2033742, “Comparison of ability of protein kinase C inhibitors to arrest cell growth and to alter cellular protein kinase C localisation” (British Journal of Cancer, 1995).

Like-named read-outs stand apart in the source and are kept apart here.

Series [1] concerns the target T1, cPKC-a (Homo sapiens, UniProt P17252).
T1 construct: these three PKC isoenzymes are abundantly ex- pressed in A549 cells; endogenous in cells; host or cells: A549 human lung carcinoma cells
As to the kind of experiment: Subcellular localisation of cPKC-alpha in A549 cells, Western blot of cellular fractions. Type of series: cell-based. Background: A western blot detects proteins with antibodies after separation by electrophoresis.
Procedure: (§1) Compounds with varying degrees of potency and specificity for PKC were investigated in A549 and MCF-7 carcinoma cells. […] To substantiate the role of PKC in the growth inhibition caused by these agents, cells were depleted of PKC by incubation with bryostatin 1 (1 jsM). […] The subcellular distribution of PKC-z-, -e and -< was measured by Western blot analysis. […] Cell growth Human A549 lung and MCF-7 breast carcinoma cells were obtained from the European Collection of Animal Cell Cul- tures (Salisbury, UK). Cells (passage number 10-30) were cultured in an atmosphere of 5% carbon dioxide, the former in Ham's F-12 medium with penicillin/streptomycin, the lat- ter in minimum essential medium (Eagle's modification) with additional pyruvate (1 mM) and non-essential amino acids. Both media were supplemented with 10% FCS (Imperial Laboratories Europe, Andover, UK, and Gibco) and gluta- mine (2 mM). Cells were subcultured routinely twice weekly to maintain logarithmic growth. For cell proliferation studies cells were seeded at a density of 1.3 x 104 cm-2 and incubat- ed with 3 ml of medium including agents, which was replen- ished at intervals of 48 h (A549) or 72 h (MCF-7). Following incubation for 4 days (A549) or 6 days (MCF-7) with drugs, cell number was assessed using a Coulter Counter Model ZM. […] Bryostatin was removed by extensive washing of the cells followed by a 2 h recovery period. […] In some experiments cells were incubated with inhibitor for 48 rather than 24 h, in this case bryostation was not removed and left in the incubate. […] Radioactivity was counted using a Packard 1500 Tricarb scintillation counter. […] The amount of protein loaded per lane was 20 tg for detection of cPKC-oc and 30 lg for nPKC-e. Detection was by enhanced chemi- luminescence generated by oxidation of luminol in the presence of hydrogen peroxide using an ECL kit from Amer- sham International.

The subject of series [2] is A549 lung carcinoma cells. As to the kind of experiment: Cell growth inhibition by cell counting (Coulter Counter), A549. Type of series: cell-based, human.
Procedure: as §1
For series [3], the target named is T2, nPKC-e (Homo sapiens, UniProt Q02156).
T2 sequence (Q02156 1-737): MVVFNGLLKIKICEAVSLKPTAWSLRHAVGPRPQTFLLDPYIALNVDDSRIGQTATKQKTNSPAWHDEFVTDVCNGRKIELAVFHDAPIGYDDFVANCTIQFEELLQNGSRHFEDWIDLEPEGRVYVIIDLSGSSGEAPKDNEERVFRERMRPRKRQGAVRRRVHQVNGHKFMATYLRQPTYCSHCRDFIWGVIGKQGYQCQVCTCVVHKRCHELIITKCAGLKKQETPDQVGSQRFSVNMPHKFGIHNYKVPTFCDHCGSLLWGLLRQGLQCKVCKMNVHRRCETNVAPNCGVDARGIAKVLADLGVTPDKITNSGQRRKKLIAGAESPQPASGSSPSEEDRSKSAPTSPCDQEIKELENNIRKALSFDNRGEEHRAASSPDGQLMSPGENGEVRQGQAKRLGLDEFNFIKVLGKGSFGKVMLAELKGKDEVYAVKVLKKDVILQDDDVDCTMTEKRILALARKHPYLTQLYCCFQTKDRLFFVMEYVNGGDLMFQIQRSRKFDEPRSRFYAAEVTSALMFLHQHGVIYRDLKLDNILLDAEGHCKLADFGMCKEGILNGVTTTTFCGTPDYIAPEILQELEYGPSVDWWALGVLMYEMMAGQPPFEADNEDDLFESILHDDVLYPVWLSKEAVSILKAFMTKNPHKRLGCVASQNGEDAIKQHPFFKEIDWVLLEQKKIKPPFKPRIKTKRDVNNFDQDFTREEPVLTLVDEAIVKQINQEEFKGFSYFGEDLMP
Briefly: Subcellular localisation of nPKC-epsilon in A549 cells, Western blot of cytosolic, particulate and nuclear fractions.
Procedure: as §1

Series [4] deals with PKC-depleted A549 cells. As to the kind of experiment: [3H]Tdr incorporation into PKC-depleted (bryostatin 1 pretreated) A549 cells. It is filed as cell-based, human.
Procedure: as §1
Series [5] relates to A549 cells. As to the kind of experiment: [3H]Tdr incorporation into control (naive) A549 cells. It is filed as cell-based, human.
Procedure: as §1
The test system of series [6] is cPKC-a and nPKC-e. As to the kind of experiment: PKC down-regulation in A549 cells by bryostatin 1, Western blot. The conditions noted are these: bryostatin 1 at 1 (micromolar) for 24 h. It is filed as cell-based, human.
Procedure: To substantiate the role of PKC in the growth inhibition caused by these agents, cells were depleted of PKC by incubation with bryostatin 1 (1 jsM). […] The subcellular distribution of PKC-z-, -e and -< was measured by Western blot analysis. […] Bryostatin was removed by extensive washing of the cells followed by a 2 h recovery period. […] In some experiments cells were incubated with inhibitor for 48 rather than 24 h, in this case bryostation was not removed and left in the incubate. […] The amount of protein loaded per lane was 20 tg for detection of cPKC-oc and 30 lg for nPKC-e. Detection was by enhanced chemi- luminescence generated by oxidation of luminol in the presence of hydrogen peroxide using an ECL kit from Amer- sham International.
The conditions of series [7]: phase I trials, ref Phillip et al., 1993, Prendiville et al.; cited from earlier work.
Series [8] has as its system A549 lung carcinoma cells. Also noted: method as in Dale and Gescher, 1989; Stanwell et al., 1994. The conditions noted are these: 24 h with bryostatin 1 (1 micromolar); ref Dale and Gescher, 1989; Stanwell et al., 1994; cited from earlier work.
Where [9] appears, read: A549 cells, 30 min, with TPA 25 nM, staurosporine effect not significant (P = 0.08).
Where [10] appears, read: Homo sapiens, A549, read-out: IC50 for inhibition of [3H]Tdr incorporation.
The mark [11] stands for this setting: Homo sapiens, A549, weaker enzyme inhibitors, read-out: concentrations which arrested growth.
The mark [12] stands for this setting: weaker enzyme inhibitors, read-out: concentrations which arrested growth.
Where [13] appears, read: PKC-depleted A549 cells (bryostatin 1 for 24 h, washed), 24 h with inhibitor, read-out: IC50 for inhibition of [3H]Tdr incorporation.
The mark [14] stands for this setting: A549 and MCF-7 cells, read-out: IC50 values for growth arrest (stronger growth inhibitors).
Where [15] appears, read: control A549 cells, 24 h with inhibitor, read-out: IC50 for inhibition of [3H]Tdr incorporation.

Turning to `CO[C@@H]1[C@H](N(C)C(=O)c2ccccc2)C[C@H]2O[C@]1(C)n1c3ccccc3c3c4c(c5c6ccccc6n2c5c31)C(=O)NC4` [CGP 41251], in series [1] (setting [9]), the “effect on TPA-induced cPKC-a redistribution” value (shortened to “effect”) was “failed to affect TPA-induced cPKC-a redistribution”.

For `COc1c(C[C@@H](C)OC(=O)Oc2ccc(O)cc2)c2c3c(C[C@@H](C)OC(=O)c4ccccc4)c(OC)c(=O)c4c(O)cc(OC)c(c5c(OC)cc(O)c(c1=O)c52)c43` [Calphostin C, calphostin C], the IC50 in series [2] (Homo sapiens, A549 and MCF-7 cells, read-out: IC50 values for growth arrest (stronger growth inhibitors)) was less than 1000 nM. For the same molecule, in series [1], the “effect” value is “failed to affect TPA-induced cPKC-a redistribution”.

As for `CN(C)CCCn1cc(C2=C(c3c[nH]c4ccccc34)C(=O)NC2=O)c2ccccc21` [GF 109203X], in series [2] (A549 and MCF-7 cells, read-out: IC50 for interference with cell growth), the IC50 was more than 7000 nM. In series [1], the “effect” value is “failed to affect TPA-induced cPKC-a redistribution”. In addition, the “concentration which changed nPKC-e localisation significantly” value in series [3] came out at 0.1 pM.

As to `CC1CNCCN1S(=O)(=O)c1cccc2cnccc12` (stereo not drawn) [H-7, 1-(5-Isoquinolinesulfonyl)-2-methylpiperazine], the results for the IC50 in series [4] (setting [10]), in series [2] (setting [11]) and in series [5] (setting [10]) were 20000 nM, more than 1000 nM and 32000 nM, respectively. Besides, the “effect” value in series [1] is on record as “failed to affect TPA-induced cPKC-a redistribution”.

`CCCCCCCCCCCCCCCCOP(=O)([O-])OCC[N+](C)(C)C` [Miltefosine, Hexadecylphosphocholine]: the IC50 in series [2] (setting [11]) was more than 1000 nM. In addition, the “effect” value in series [1] (setting [9]) is “failed to affect TPA-induced cPKC-a redistribution”.

As to `CCCCCCCCCCCCC(=O)N1CCCCC1CNC(=O)C(N)CCCCN` (stereo not drawn) [NPC 15-437, 2,6-Diamino-N-([l-(1-oxotridecyl)-2-piperidinyl]methyl)hexanamide], the IC50 in series [2] (setting [12]) was more than 1000 nM.

On to `Cn1cc(C2=C(c3cn(CCCSC(=N)N)c4ccccc34)C(=O)NC2=O)c2ccccc21` [RO 31-8220], for which the IC50 was 1600 nM in series [4] (setting [13]), less than 1000 nM in series [2] (setting [14]) and 1900 nM in series [5] (setting [15]). In series [1], the “effect” value was “failed to affect TPA-induced cPKC-a redistribution”. Also, in series [3], the “concentration which changed nPKC-e localisation significantly” value came to 0.1 pM.

In the case of `CN[C@@H]1C[C@H]2O[C@@](C)([C@@H]1OC)n1c3ccccc3c3c4c(c5c6ccccc6n2c5c31)C(=O)NC4` [Staurosporine, staurosporine], the IC50 in series [5] (setting [10]) amounted to 1.2 nM.

With `CCCCCCCCCCCCC/C=C/[C@@H](O)[C@H](CO)[N+](C)(C)C` [TMS, trimethylsphingosine], in series [2] (setting [12]), the IC50 is more than 1000 nM.

For the molecule `CN[C@@H]1C[C@H]2O[C@@](C)([C@@H]1OC)n1c3ccccc3c3c4c(c5c6ccccc6n2c5c31)C(=O)N[C@H]4O` [UCN-01], the IC50 in series [4] (setting [13]) was 47 nM; in series [2] (setting [14]), less than 1000 nM; in series [5] (setting [15]), 68 nM. Further, the “effect” value in series [1] (setting [9]) is listed as “behaved similarly”. The “blots in which TPA-induced cPKC-a translocation was augmented” value in series [1] (A549 cells, UCN-01 at 1 (micromolar) with TPA 25 nM) was “three out of six”. In addition, the “concentration required for translocation relative to IC50 for growth of A549 cells” value in series [3] (A549) was 2- to 3 fold. In series [3] (A549 cells, 30 min, P<0.05 vs control), the “concentration which changed nPKC-e localisation significantly” value is reported as 0.1 pM.

`CCC/C=C/C=C/C(=O)O[C@H]1/C(=C/C(=O)OC)C[C@H]2C[C@H]([C@@H](C)O)OC(=O)C[C@H](O)C[C@@H]3C[C@H](OC(C)=O)C(C)(C)[C@](O)(C[C@@H]4C/C(=C/C(=O)OC)C[C@H](/C=C/C(C)(C)[C@]1(O)O2)O4)O3` [bryostatin 1]: in series [6], the “down-regulation of cPKC-a and nPKC-e” value is recorded as “completely down-regulated”. Further, the dose-limiting toxicity entry in series [7] is reported as “myalgia”. Also, the “growth inhibition under PKC depletion conditions” value in series [8] is “negligible”.
